Tested on: C. elegans
Test: Reverse-Northern dot-blot analysis of steady-state mRNA levels after cadmium exposure
Format: in vivo, Caenorhabditis elegans
Conditions: for Fold-change in mRNA levels following cadmium exposure, DDRT25: clone DDRT25; for Fold-change in mRNA levels following cadmium exposure, DDRT26: clone DDRT26; for Fold-change in mRNA levels following cadmium exposure, DDRT28: clone DDRT28; for Fold-change in mRNA levels following cadmium exposure, DDRT29: clone DDRT29; for Fold-change in mRNA levels following cadmium exposure, DDRT30: clone DDRT30; for Fold-change in mRNA levels following cadmium exposure, DDRT32: clone DDRT32; for Fold-change in mRNA levels following cadmium exposure, DDRT33D: clone DDRT33D; for Fold-change in mRNA levels following cadmium exposure, DDRT33U: clone DDRT33U; for Fold-change in mRNA levels following cadmium exposure, DDRT34: clone DDRT34; for Fold-change in mRNA levels following cadmium exposure, DDRT35: clone DDRT35; for Fold-change in mRNA levels following cadmium exposure, DDRT40: clone DDRT40; for Fold-change in mRNA levels following cadmium exposure, DDRT41: clone DDRT41; for Fold-change in mRNA levels following cadmium exposure, DDRT48: clone DDRT48; for Fold-change in mRNA levels following cadmium exposure, DDRT50: clone DDRT50; for Fold-change in mRNA levels following cadmium exposure, VL9: clone VL9; for Fold-change in mRNA levels following cadmium exposure, VL11: clone VL11; for Fold-change in mRNA levels following cadmium exposure, VL19: clone VL19; for Fold-change in mRNA levels following cadmium exposure, VL20: clone VL20; for Fold-change in mRNA levels following cadmium exposure, VL21: clone VL21
Method: Growth and isolation of C. elegans—The N2 strain of C. elegans was grown in liquid S medium (0.1M NaCl, 50 mM potassium phosphate, pH 6.0, 5 μg/ml cholesterol, 10 mM potassium citrate, 3 mM CaCl2, 3 mM MgCl2, 50 μM EDTA, 25 μM FeSO4, 10 μM MnCl2, 10 μM ZnSO4 and 1 μM CuSO4) using E. coli OP50 as a food source (Brenner, S. (1974) Genetics 77, 71-94). In experiments where nematodes were exposed to cadmium, the medium was supplemented with 100 μM CdCl2 (Freedman, J. H. et al. (1993) J. Biol. Chem. 268, 2554-2564). C. elegans were grown in the presence of metal for 8 h or 24 h at ˜20° C. Nematodes were then collected following centrifugation at 800×g for 5 min. Pellets were suspended in 5 mM NaCl containing 35% sucrose (final concentration) and viable nematodes were collected from the top of the solution following centrifugation at 1000×g for 5 min at 4° C. Nematodes were then washed three times by suspension in M9 buffer (22 mM KH2PO4, 42 mM Na2HPO4, 85 mM NaCl, 1 mM MgSO4) followed by sedimentation at 800×g. Washed nematode pellets were finally suspended in a small volume of M9 buffer, rapidly frozen in liquid nitrogen and stored at −80° C.
RNA isolation—Total RNA was isolated from mix-stage populations of C. elegans exposed to 100 μM CdCl2 for 8 h and 24 h and control, non-exposed nematodes. Frozen worms were first ground into a fine powder using a liquid nitrogen-cooled mortar and pestle. Powdered C. elegans (200 mg) were then homogenized in 2 ml of TRIzol (GIBCO/BRL). RNA was then collected from the aqueous phase following the addition of chloroform, precipitated by adding isopropyl alcohol and then air-dried. The dried RNA pellet was then dissolved in diethyl pyrocarbonate (DEPC)-treated water. For some experiments, poly(A^+) RNA was subsequently isolated using the Poly(A) Tract System following manufacturer's instructions (Promega).
Reverse-Northern dot-blot analysis—Changes in the steady-state levels of differentially expressed mRNAs in C. elegans following cadmium-exposure were also determined by reverse-Northern dot-blot analysis by the modified procedure of Zhang et al. (Cummins, C. et al. (1988) Mol. Cell. Biol 8, 5334-5349). Briefly, differentially expressed cDNAs that were previously cloned into pGEM-T were amplified using primers that anneal to the T7 and SP6 RNA polymerase binding sites, which flank the cDNA insert. cDNAs were amplified and subsequently purified using a PCR-spin column (QIAGEN). Approximately 100 ng of each amplified cDNA were denatured by mixing with 0.1N NaOH (final concentration) and incubating at 100° C. for 5 min. The solution was neutralized following the addition of 3×SSC (final concentration) and then the volume adjusted to 700 μl with dH2O. 200-μl of each sample was applied to one of three Nytran membranes in a Bio-Dot microfiltration apparatus (BioRad). Membranes were then baked for 30 min at 80° C. under vacuum. As positive and loading controls 100 ng of mtl-1 cDNA and myosin light chain DNA were also applied to each membrane, respectively.
Three pools of single-stranded ^32P-labeled cDNA probes were prepared from poly(A^+) RNA isolated from control, 8 h and 24 h cadmium-treated nematodes. cDNAs were generated from a mixture of mRNAs in a 25 μl reverse transcriptase reactions which contained 2 μg poly(A^+) RNA, 1 μg oligo (dT)18 primer, reverse transcriptase buffer, 800 μM DATP, dGTP and dTTP, 4.5 μM dCTP, 100 μCi [α-^32P]dCTP (3000 Ci/mmol), 20 units RNase inhibitor and 200 units Moloney murine leukemia virus reverse transcriptase. The reaction mixture was incubated at 37° C. for 1 h, then at 95° C. for 5 min to terminate the reaction. Unincorporated nucleotides were separated from the labeled cDNAs by using a G-25 spin column (Boehringer Mannheim). Equal amounts (5×10^6 cpm/ml) of each radioactive cDNA mixture were heat-denatured and then hybridized separately to one of the three membranes at 42° C. for 16 h in hybridization buffer. […]

[1] = 8 hours, 100 μM CdCl2, relative to non-exposed, normalized to myosin light chain mRNA
[2] = 24 hours, 100 μM CdCl2, relative to non-exposed, normalized to myosin light chain mRNA

[Cl][Cd][Cl] [cadmium, CdCl2]
Fold-change in mRNA levels following cadmium exposure, DDRT23 (clone DDRT23, 24 hours, 100 μM CdCl2, relative to non-exposed, normalized to myosin light chain mRNA): 3.0 fold
Fold-change in mRNA levels following cadmium exposure, DDRT25 [1]: 3.9 fold
Fold-change in mRNA levels following cadmium exposure, DDRT25 [2]: 4.4 fold
Fold-change in mRNA levels following cadmium exposure, DDRT26 [1]: 4.4 fold
Fold-change in mRNA levels following cadmium exposure, DDRT26 [2]: 4.7 fold
Fold-change in mRNA levels following cadmium exposure, DDRT28 [1]: 1.7 fold
Fold-change in mRNA levels following cadmium exposure, DDRT28 [2]: 1.8 fold
Fold-change in mRNA levels following cadmium exposure, DDRT29 [1]: 3.9 fold
Fold-change in mRNA levels following cadmium exposure, DDRT29 [2]: 4.4 fold
Fold-change in mRNA levels following cadmium exposure, DDRT30 [1]: 2.7 fold
Fold-change in mRNA levels following cadmium exposure, DDRT30 [2]: 3.1 fold
Fold-change in mRNA levels following cadmium exposure, DDRT32 [1]: 2.6 fold
Fold-change in mRNA levels following cadmium exposure, DDRT32 [2]: 2.4 fold
Fold-change in mRNA levels following cadmium exposure, DDRT33D [1]: 3.1 fold
Fold-change in mRNA levels following cadmium exposure, DDRT33D [2]: 3.5 fold
Fold-change in mRNA levels following cadmium exposure, DDRT33U [1]: 3.0 fold
Fold-change in mRNA levels following cadmium exposure, DDRT33U [2]: 3.5 fold
Fold-change in mRNA levels following cadmium exposure, DDRT34 [1]: 2.4 fold
Fold-change in mRNA levels following cadmium exposure, DDRT34 [2]: 3.0 fold
Fold-change in mRNA levels following cadmium exposure, DDRT35 [1]: 1.6 fold
Fold-change in mRNA levels following cadmium exposure, DDRT35 [2]: 1.9 fold
Fold-change in mRNA levels following cadmium exposure, DDRT38 (clone DDRT38, 24 hours, 100 μM CdCl2, relative to non-exposed, normalized to myosin light chain mRNA): 1.8 fold
Fold-change in mRNA levels following cadmium exposure, DDRT40 [1]: 1.9 fold
Fold-change in mRNA levels following cadmium exposure, DDRT40 [2]: 2.3 fold
Fold-change in mRNA levels following cadmium exposure, DDRT41 [1]: 2.2 fold
Fold-change in mRNA levels following cadmium exposure, DDRT41 [2]: 2.1 fold
Fold-change in mRNA levels following cadmium exposure, DDRT48 [1]: 2.1 fold
Fold-change in mRNA levels following cadmium exposure, DDRT48 [2]: 2.6 fold
Fold-change in mRNA levels following cadmium exposure, DDRT50 [1]: 2.2 fold
Fold-change in mRNA levels following cadmium exposure, DDRT50 [2]: 2.2 fold
Fold-change in mRNA levels following cadmium exposure, VL3 (clone VL3, 24 hours, 100 μM CdCl2, relative to non-exposed, normalized to myosin light chain mRNA): 2.4 fold
Fold-change in mRNA levels following cadmium exposure, VL9 [1]: −1.7 fold
Fold-change in mRNA levels following cadmium exposure, VL9 [2]: −2.3 fold
Fold-change in mRNA levels following cadmium exposure, VL11 [1]: 3.2 fold
Fold-change in mRNA levels following cadmium exposure, VL11 [2]: 6.1 fold
Fold-change in mRNA levels following cadmium exposure, VL12 (clone VL12 (mtl-1), 24 hours, 100 μM CdCl2, relative to non-exposed, normalized to myosin light chain mRNA): 5.2 fold
Fold-change in mRNA levels following cadmium exposure, VL19 [1]: 3.6 fold
Fold-change in mRNA levels following cadmium exposure, VL19 [2]: 5.0 fold
Fold-change in mRNA levels following cadmium exposure, VL20 [1]: 2.8 fold
Fold-change in mRNA levels following cadmium exposure, VL20 [2]: 5.0 fold
Fold-change in mRNA levels following cadmium exposure, VL21 [1]: 2.2 fold
Fold-change in mRNA levels following cadmium exposure, VL21 [2]: 2.5 fold
decrease in level of expression, a single clone (following cadmium exposure): ~2 fold
increase in steady-state level of expression, forty-eight of the clones (following cadmium exposure): 2-6 fold
decrease in level of expression for VL9 (in response to cadmium, time not stated): ~2 fold
